# Reference: ChEMBL document CHEMBL1139552, “Naphthamidine urokinase plasminogen activator inhibitors with improved pharmacokinetic properties” (Bioorg Med Chem Lett, 2005)
# Experiments:
# Trypsin = Trypsin (Sus scrofa, UniProt P00761); test: Binding affinity value against trypsin
# [1] = Bioavailability in rat (Sprague-Dawley) (dose 10 mg/kg); assay type: ADME, organism-based; details: in vivo
# [2] = target: Urokinase-type plasminogen activator (Homo sapiens, UniProt P00749)
# Description: Binding affinity value against urokinase plasminogen activator
# [3] = Terminal half life value in sprague dawley rat was determined at a dosage of 3 mg/kg; assay type: ADME, organism-based; parameters: dose 3 mg/kg; details: in vivo
# [4] = Volume distribution value in sprague dawley rat was determined at a dosage of 3 mg/kg; assay type: ADME, organism-based; parameters: dose 3 mg/kg; details: in vivo
# [5] = Binding affinity value against thrombin
# in vivo [6] = details: Sprague-Dawley, rat, 3 mg/kg
# Description: (§1) Clearance value in sprague dawley rat was determined at a dosage of 3 mg/kg
# [7] = Area under the curve time curve value in sprague dawley rat was determined at a dosage of 3 mg/kg; assay type: ADME, organism-based; parameters: dose 3 mg/kg; details: in vivo
# [8] = rat, in vivo, 3 mg/kg
# Description: as §1
# [9] = target: Tissue-type plasminogen activator (Homo sapiens, UniProt P00750); test: Binding affinity value against Tissue plasminogen activator
# Plasminogen = Plasminogen (Homo sapiens, UniProt P00747); test: Binding affinity value against plasmin
# Kallikrein-1 = Kallikrein-1 (Homo sapiens, UniProt P06870)
# Description: Binding affinity value against kallikrein
# [10] = Bioavailability in sprague dawley rat was determined at a dosage of 3 mg/kg; NT means not tested; assay type: ADME, organism-based; details: in vivo
# [11] = Area under the curve time curve value in sprague dawley rat was determined at a intravenous dosage of 10 mg/kg; assay type: ADME, organism-based; parameters: dose 10 mg/kg, route intravenous; details: in vivo
# [12] = Volume distribution value in sprague dawley rat was determined at a intravenous dosage of 10 mg/kg; assay type: ADME, organism-based; parameters: dose 10 mg/kg, route intravenous; details: in vivo
# in vivo [13] = details: Sprague-Dawley, rat, iv, 10 mg/kg
# Description: Clearance value in sprague dawley rat was determined at a intravenous dosage of 10 mg/kg
# [14] = Terminal half life value in sprague dawley rat was determined at a intravenous dosage of 10 mg/kg; assay type: ADME, organism-based; parameters: dose 10 mg/kg, route intravenous; details: in vivo
# Sequence of Plasminogen (P00747 97-580 limits assumed): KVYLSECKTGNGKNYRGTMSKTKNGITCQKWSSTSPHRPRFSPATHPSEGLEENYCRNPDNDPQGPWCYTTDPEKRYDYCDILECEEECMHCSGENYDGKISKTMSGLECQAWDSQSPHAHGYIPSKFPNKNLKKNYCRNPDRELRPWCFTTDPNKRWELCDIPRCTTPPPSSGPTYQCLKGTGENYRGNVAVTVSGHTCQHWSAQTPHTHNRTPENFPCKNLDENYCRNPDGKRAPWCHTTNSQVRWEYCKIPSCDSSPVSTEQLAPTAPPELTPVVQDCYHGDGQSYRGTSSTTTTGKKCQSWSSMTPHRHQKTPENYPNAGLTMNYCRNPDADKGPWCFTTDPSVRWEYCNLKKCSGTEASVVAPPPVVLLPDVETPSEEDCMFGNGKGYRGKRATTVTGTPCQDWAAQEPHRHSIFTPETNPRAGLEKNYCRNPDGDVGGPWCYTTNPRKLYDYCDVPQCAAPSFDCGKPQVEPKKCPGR
# Sequence of Plasminogen (P00747 581-810 limits assumed): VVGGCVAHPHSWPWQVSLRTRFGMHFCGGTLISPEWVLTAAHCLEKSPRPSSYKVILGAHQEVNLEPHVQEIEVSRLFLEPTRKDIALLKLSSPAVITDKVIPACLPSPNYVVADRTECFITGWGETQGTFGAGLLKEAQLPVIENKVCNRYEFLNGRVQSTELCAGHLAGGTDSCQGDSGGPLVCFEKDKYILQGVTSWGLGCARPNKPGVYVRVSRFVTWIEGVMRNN
# Sequence of Kallikrein-1 (P06870 whole entry): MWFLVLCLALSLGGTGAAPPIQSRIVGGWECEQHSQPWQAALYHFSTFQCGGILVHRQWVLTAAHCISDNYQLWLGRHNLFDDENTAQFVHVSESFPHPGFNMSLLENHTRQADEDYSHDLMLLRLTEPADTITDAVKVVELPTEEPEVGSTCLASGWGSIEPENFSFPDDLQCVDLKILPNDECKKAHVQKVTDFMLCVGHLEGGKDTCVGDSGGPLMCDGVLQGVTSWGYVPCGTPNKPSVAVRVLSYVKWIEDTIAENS
# Sequence of Tissue-type plasminogen activator (P00750 whole entry): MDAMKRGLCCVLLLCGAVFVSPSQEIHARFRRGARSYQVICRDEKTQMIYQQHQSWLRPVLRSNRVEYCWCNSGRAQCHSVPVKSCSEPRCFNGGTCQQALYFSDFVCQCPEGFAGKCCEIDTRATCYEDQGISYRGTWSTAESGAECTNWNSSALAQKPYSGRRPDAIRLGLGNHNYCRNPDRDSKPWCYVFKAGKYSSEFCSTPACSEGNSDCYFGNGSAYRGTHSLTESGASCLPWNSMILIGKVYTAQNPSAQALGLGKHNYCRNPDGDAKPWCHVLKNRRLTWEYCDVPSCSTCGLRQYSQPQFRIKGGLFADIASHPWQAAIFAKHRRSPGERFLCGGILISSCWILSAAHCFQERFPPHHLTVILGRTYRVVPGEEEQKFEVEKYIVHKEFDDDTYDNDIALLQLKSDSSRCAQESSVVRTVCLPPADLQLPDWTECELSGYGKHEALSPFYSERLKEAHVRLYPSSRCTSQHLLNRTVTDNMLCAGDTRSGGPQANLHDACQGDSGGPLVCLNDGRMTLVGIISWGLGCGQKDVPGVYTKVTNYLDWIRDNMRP
# Sequence of Trypsin (P00761 whole entry): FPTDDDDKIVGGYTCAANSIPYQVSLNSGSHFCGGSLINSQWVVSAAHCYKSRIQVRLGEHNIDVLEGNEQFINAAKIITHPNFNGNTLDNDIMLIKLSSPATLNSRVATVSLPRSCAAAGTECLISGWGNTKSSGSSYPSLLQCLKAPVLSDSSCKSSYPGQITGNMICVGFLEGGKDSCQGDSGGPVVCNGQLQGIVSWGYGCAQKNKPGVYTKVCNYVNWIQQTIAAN
Structure (SMILES),Ki (Trypsin) [nM],Ki [2] [nM],half-life [3] [h],Vd [4] [L/kg],Ki [5] [nM],clearance (in vivo [6]) [mL/min/kg],"AUC ([7]; Sprague-Dawley, read-out: AUC) [µM·h]",CI [8] [mL/min/kg],Ki [9] [nM],Ki (Plasminogen) [nM],Ki (Kallikrein-1) [nM],AUC [10] [µM·h],half-life [14] [h],bioavailability [1] [%],AUC [7] [µM·h],CI ([8]; Sprague-Dawley) [mL/min/kg],AUC [11] [µM·h],Vd [12] [L/kg],clearance (in vivo [13]) [mL/min/kg]
N=C(N)c1ccc2cc(C(=O)Nc3ccccc3)cc(Nc3ncccn3)c2c1,40,200,0.6,37.1,170,715,0.14,,,,,,,0,,,,,
N=C(N)c1ccc2cc(CCc3ccccc3)cc(Nc3ncccn3)c2c1,167,,2,13.6,191,,,,5790,570,156,,,0,4.2,78.3,,,
N=C(N)c1ccc2cc(C3CC3c3ccc4c(c3)C(C3CCCCC3)=NCC4)ccc2c1 (stereo not drawn),428,,0.27,4.5,1140,192,0.57,,4020,594,206,,,22,,,,,
CC(C)Oc1cccc(C2CC2c2ccc3cc(C(=N)N)ccc3c2)c1 (stereo not drawn),141,,5.91,19.3,1100,37.7,3.48,,21900,2450,1400,,,23,,,,,
N=C(N)c1ccc2cc(CCc3ccccc3)cc(-c3ccoc3)c2c1,,731,,1.53,,,,,,,,,,18,17.6,55.2,,,
CN1CCc2ccc(C3CC3c3ccc4cc(C(=N)N)ccc4c3)cc2C1C1CCCCC1 (stereo not drawn),31,,1.53,18.7,996,142,0.53,,18900,811,295,,,27,,,,,
N=C(N)c1ccc2cc(C3CC3c3ccccc3)cc(-c3ccoc3)c2c1 (stereo not drawn),,,,2.4,,,,,,,,,,10,14.5,70,,,
CC(C)C1=NCCc2cc(C3CC3c3ccc4cc(C(=N)N)ccc4c3)ccc21 (stereo not drawn),,,0.33,,,,,,,,,,,0,,,0.27,7.9,273
CC(C)C1c2cc(C3CC3c3ccc4cc(C(=N)N)ccc4c3)ccc2CCN1C (stereo not drawn),90,,0.55,10.3,1800,216,0.37,,6230,1300,576,,,55,,,,,
N=C(N)c1ccc2cc(/C=C/c3ccccc3)cc(-c3ccoc3)c2c1,96,168,0.62,,237,21.7,,,4460,134,83,,,0,,,5.8,1.2,
N=C(N)c1ccc2cc(/C=C/c3ccccc3)cc(Nc3ncccn3)c2c1,84,10,,,395,,,,> 50000,277,42,,,,,,,,

# Now from value to compound, other results behind:
Ki (Trypsin) [nM],Ki [2] [nM],half-life [3] [h],Vd [4] [L/kg],Ki [5] [nM],clearance (in vivo [6]) [mL/min/kg],"AUC ([7]; Sprague-Dawley, read-out: AUC) [µM·h]",CI [8] [mL/min/kg],Ki [9] [nM],Ki (Plasminogen) [nM],Ki (Kallikrein-1) [nM],AUC [10] [µM·h],half-life [14] [h],Structure (SMILES),bioavailability [1] [%],AUC [7] [µM·h],CI ([8]; Sprague-Dawley) [mL/min/kg],AUC [11] [µM·h],Vd [12] [L/kg],clearance (in vivo [13]) [mL/min/kg]
325,,2.1,8.5,5640,,,46.7,,,,,,N=C(N)c1ccc2cc(C(=O)Nc3ccccc3)ccc2c1,3,8.2,,,,
53,,1.33,18.6,2140,161,0.51,,4740,1050,525,,,CC(C)C1=NCCc2ccc(C3CC3c3ccc4cc(C(=N)N)ccc4c3)cc21 (stereo not drawn),26,,,,,
334,622,4.71,14.3,503,35,2.72,,30800,239,379,,,N=C(N)c1ccc2cc(C3CC3c3ccccc3)cc(Br)c2c1 (stereo not drawn),17,,,,,
,548,,,,,,,,,,,,CN1CCc2ccc(C3CC3c3ccc4cc(C(=N)N)ccc4c3)cc2C1C(C)(C)C (stereo not drawn),,,,,,
64,281,1.05,18.7,2660,205,,,5590,1020,992,0.6,,N=C(N)c1ccc2cc(C(=O)Nc3ccccc3)cc(Br)c2c1,0,,,,,
,,3.3,18,,63.3,1.75,,,,,,,N=C(N)c1ccc2cc(CCc3ccccc3)cc(Br)c2c1,> 32,,,,,
165,,,,2120,,,,7040,955,336,,,N=C(N)c1ccc2cc(C3CC3c3ccc4c(c3)C(c3ccccc3)=NCC4)ccc2c1 (stereo not drawn),,,,,,
54,5,0.33,10,48,352,0.23,,5050,243,54,,,N=C(N)c1ccc2cc(C3CC3c3ccccc3)cc(Nc3ncccn3)c2c1 (stereo not drawn),0,,,,,
30,,,,1790,,,,10400,1480,640,,,CC(C)C1=NCCc2ccc([C@H]3CC3c3ccc4cc(C(=N)N)ccc4c3)cc21 (stereo partly drawn),,,,,,
,3180,1,9.8,,113,1.14,,,,,,,N=C(N)c1ccc2cc(CCc3ccccc3)ccc2c1,60,,,,,
346,,,,5270,,,,34600,,991,,,N=C(N)c1ccc2cc(/C=C/c3ccccc3)ccc2c1,,,,,,
45,,3,21.7,132,,,83,,,,,,N=C(N)c1ccc2cc(C(=O)Nc3ccccc3)cc(-c3ccoc3)c2c1,0,5,,,,
480,820,,,920,,,,13400,1350,770,,,N=C(N)c1ccc2cc(/C=C/c3ccccc3)cc(Br)c2c1,,,,,,
,,0.28,2.9,,121,0.69,,,,,,,CC1c2cc(C3CC3c3ccc4cc(C(=N)N)ccc4c3)ccc2CCN1C (stereo not drawn),0,,,,,
720,,,23,1890,,,36,69100,3520,2480,,7.4,N=C(N)c1ccc2cc(C3CC3c3ccccc3)ccc2c1 (stereo not drawn),30,11.6,,,,
